Results published in PubChem BioAssay AID493240 (Broad Institute, 2011).

Test system: SK-MEL-5 viability, ATP luminescence (CellTiter-Glo), 24 h
Assay: SK-MEL-5 parental cell viability loss, dose response, orthogonal assay for MITF inhibitor project, CellTiter-Glo, cherry-picked, set 3 (AID 493240)

Point of comparison: Cc1cccc(NC2=C(NC(=O)c3ccccc3)C(=O)c3ccccc3C2=O)c1, AC50 19.7 µM. Against it:
- Cc1ccc(C)c(NC(=O)/C(C#N)=C/c2cn(CC(=O)NCc3ccco3)c3ccccc23)c1 — within 1.5-fold, 15.2 µM
- CCN1CCN(c2ccc(NC(=O)c3ccc([N+](=O)[O-])o3)cc2Cl)CC1 — within 1.5-fold, 24.8 µM
- COc1cc(NC(=O)COc2ccccc2[N+](=O)[O-])ccc1NC(=O)c1cccs1 — within 1.5-fold, 26.4 µM
- COc1ccc(C(=O)/C=C/C(=O)N(CC(=O)NC2CCCCC2)Cc2cccs2)c(O)c1 — within 1.5-fold, 20.5 µM
- Cc1ccc2c(c1)Oc1ccc(NC(=O)CCl)cc1C(=O)N2 — 2-fold lower, 9.65 µM
- O=C(Nc1ccc(S(=O)(=O)NC2=NCCCCC2)cc1)c1ccc([N+](=O)[O-])s1 — within 1.5-fold, 23 µM
- CC[n+]1c(-c2ccccc2)c2cc(N)ccc2c2ccc(N)cc21 — within 1.5-fold, 15 µM
- COc1ccc(C(=O)/C=C/C(=O)N(CC(=O)NC2CCCCC2)Cc2ccc(F)cc2)c(O)c1 — 1.5-fold lower, 12.8 µM
- O=C(NC1=C(Nc2ccc(Cl)cc2)C(=O)c2ccccc2C1=O)c1ccccc1 — 1.8-fold lower, 11.2 µM
- CCN(CC)CCNC(=O)C1CCN(S(=O)(=O)c2c(C)noc2/C=C/c2ccccc2F)CC1 — within 1.5-fold, 28.8 µM
- CN(C)CCNC(=O)/C(=C/c1ccc(-c2ccc(Cl)cc2)o1)NC(=O)c1ccccc1 — within 1.5-fold, 20.4 µM
- CC1CCC(C(C)C)C(OC(=O)Cn2c(-c3ccc(Br)cc3)[n+](C)c3ccccc32)C1 (stereo not drawn) — within 1.5-fold, 15.2 µM
- CC(C)Oc1ccc(C(CCNCc2ccc(O)cc2)c2ccccc2)cc1 (stereo not drawn) — within 1.5-fold, 16.5 µM
- O=C(C#Cc1ccccc1)c1cccc([N+](=O)[O-])c1 — within 1.5-fold, 26.2 µM
- CC1CN(C(=O)CCC(=O)NCCCN2CCC(Cc3ccccc3)CC2)c2cc(Cl)ccc2O1 (stereo not drawn) — 2.8-fold lower, 6.98 µM
- COc1ccc(-c2c[n+](CC(=O)OC3CC(C)CCC3C(C)C)c3n2CCC3)cc1 (stereo not drawn) — within 1.5-fold, 14.5 µM
- O=C(CCl)N(c1ccccc1)C1CCCCC1 — 1.6-fold higher, 32.3 µM
- CS(=O)(=O)c1ncc(Cl)c(C(=O)Nc2ccc3ccccc3c2)n1 — within 1.5-fold, 18.3 µM
- O=C(N/N=C/c1ccc(F)cc1)c1c(O)c2ccccc2[nH]c1=O — within 1.5-fold, 26.9 µM
- Cc1c(C(=O)Nc2ccc(S(=O)(=O)N(C)C3CCN(C)CC3)cc2)oc2c(Cl)cccc12 — within 1.5-fold, 29.4 µM
- CC1CCN(CC(CS(=O)(=O)c2ccc([N+](=O)[O-])cc2)N2CCC(C)CC2)CC1 (stereo not drawn) — within 1.5-fold, 27.3 µM
- CCN1CCN(C2=C(NS(=O)(=O)c3ccc(Br)cc3)C(=O)c3ccccc3C2=O)CC1 — within 1.5-fold, 22.9 µM
- O=C(N/N=C/c1ccc(O)c2ncccc12)c1cccc(Br)c1 — within 1.5-fold, 25.7 µM
- CCN(Cc1ccccc1)c1ccc(/C=N/N=C(N)N)cc1 — within 1.5-fold, 17.9 µM
- Cc1ccc(NC2=C(Cl)C(=O)c3ccccc3C2=O)cc1 — 2-fold lower, 9.83 µM
- COc1ccccc1NS(=O)(=O)c1cc(NC(=O)c2ccc(Cl)nc2)ccc1Cl — within 1.5-fold, 24.3 µM
- Cc1cc(C)c[n+](C2=C([O-])c3ccccc3C(=O)/C2=N\S(=O)(=O)c2cccs2)c1 — within 1.5-fold, 15.4 µM
- COc1cc(NC(=O)c2ccc([N+](=O)[O-])o2)ccc1NC(=O)c1cccs1 — within 1.5-fold, 20.1 µM
- Cc1c(N=C2C=CC(=O)c3ccccc32)c(=O)n(-c2ccccc2)n1C — 1.6-fold higher, 30.9 µM
- COc1cc(CNC2CCCC2)cc(Cl)c1OCc1ccccc1Cl — within 1.5-fold, 16.8 µM
- CCCCN(CC)CCCNC(=O)c1cc2c(=O)n(CC)c3ccccc3c2s1 — within 1.5-fold, 23.2 µM
- COc1cc(/C=N/N=C(N)N)ccc1OCc1ccc(Cl)cc1 — within 1.5-fold, 18.8 µM
- CC(C)(C)c1ccc(OCCn2ccccc2=O)cc1 — within 1.5-fold, 28.7 µM
- CCOc1ccc(-n2c(-c3ccc(Br)cc3)c[n+]3c2CCCCC3)cc1 — within 1.5-fold, 20.5 µM
- O=C(CCl)Nc1ccc(Sc2ccc(NC(=O)CCl)cc2)cc1 — within 1.5-fold, 23.6 µM
- O=[N+]([O-])c1cccc2c(N3CCCC3)ccnc12 — within 1.5-fold, 15.3 µM
- CCOC(=O)c1c(C)oc2c1C(=O)c1ccccc1C2=O — 5.8-fold lower, 3.37 µM
- Cc1ccc(C(C)C)c(OCc2nn(CC(=O)c3ccc(Cl)cc3)c3[n+]2CCCCC3)c1 — within 1.5-fold, 18.4 µM
- CCSCCc1nnc(NC(=O)Nc2cccc(C(F)(F)F)c2)s1 — within 1.5-fold, 16.6 µM
- CCCN1CCC(NCc2cn(C)nc2-c2ccc(Oc3ccccc3)cc2)CC1 — within 1.5-fold, 22.3 µM
- COc1cccc(/C=N/Nc2ccc(C(=O)O)cc2)c1O — within 1.5-fold, 19.9 µM
- COC1=C(Nc2ccc(O)cc2)C(=O)c2ccccc2C1=O — 2.3-fold lower, 8.43 µM
- CC(=O)Nc1ccc(S(=O)(=O)NC2=C(N3CCN(C)CC3)C(=O)c3ccccc3C2=O)cc1 — within 1.5-fold, 22.8 µM
- CS(=O)(=O)c1ccc(S(=O)CC(=O)OCc2ccccc2)c([N+](=O)[O-])c1 (stereo not drawn) — within 1.5-fold, 28.3 µM
- CC(C)C(CCNC1CCN(C)CC1)c1ccc(Cl)cc1 (stereo not drawn) — within 1.5-fold, 23.1 µM
- Cc1ccc(-c2nnc(SCC(=O)Nc3ccccc3F)o2)cc1 — within 1.5-fold, 21.7 µM
- Nc1c(N(CCC2=CCCCC2)C(=O)COc2ccc([N+](=O)[O-])cc2)c(=O)[nH]c(=O)n1Cc1ccccc1 — 1.7-fold higher, 33.7 µM
- CCN(CC)CCNC(=O)c1ccc(NC(=O)c2cccc(S(=O)(=O)N3c4ccccc4CC3C)c2)cc1 (stereo not drawn) — within 1.5-fold, 22.5 µM
- Cn1nnnc1Sc1ncnc2scc(-c3ccc(C#N)cc3)c12 — within 1.5-fold, 18.7 µM
- O=C1/C(=N\S(=O)(=O)c2cccs2)C([n+]2ccccc2)=C([O-])c2ccccc21 — 3.7-fold lower, 5.27 µM
- CC(=O)N(\C=C/C=C/C=C1\Sc2ccccc2C1=O)c1ccccc1 — within 1.5-fold, 21.2 µM
- O=C1/C(=C/c2ccccc2[N+](=O)[O-])COc2ccccc21 — 1.7-fold higher, 34.1 µM
- COc1cc(NC(=O)COc2cc(O)c3c(c2)OC(C)(C)CC3=O)cc(OC)c1OC — within 1.5-fold, 23.4 µM
- Cc1oc(-c2ccc(Cl)cc2)nc1CN1CCC(C(=O)NCCCN2CCCC(C)C2)CC1 (stereo not drawn) — within 1.5-fold, 17.1 µM
- O=C1C=C(N(CCO)Cc2ccccc2)c2ccccc2C1=O — within 1.5-fold, 13.3 µM
- Cc1ccc(C#CC[N+]2(CC#Cc3ccc(C)cc3)CCCCC2)cc1 — within 1.5-fold, 16 µM
- COc1ccc2nc(C)cc(NCc3cccc(C(F)(F)F)c3)c2c1 — within 1.5-fold, 27.9 µM
- Cc1ccc2[nH]c(=O)c(CN(CCCN(C)C)C(=O)Nc3cccc(Cl)c3)cc2c1 — within 1.5-fold, 24.3 µM
- Cc1ccc(NC(=O)CCl)cc1S(=O)(=O)N1CCCCCC1 — within 1.5-fold, 28.3 µM
- CCc1ccc(NC2=CC(=O)C(=O)c3ccccc32)cc1 — 3.4-fold lower, 5.85 µM
- COCCCn1[nH]c2c3c(ccc2c1=O)C(=O)c1ccccc1C3=O — within 1.5-fold, 16.5 µM
- COc1cc(/C=N/NC(N)=O)c(Br)cc1OCC(=O)Nc1ccccc1C — within 1.5-fold, 27.2 µM
- CCOc1cc(/C=N/N=C(N)N)ccc1OCc1ccc(Cl)cc1 — within 1.5-fold, 19.2 µM
- COc1cccc2c1C(=O)C=C(C)C2=O — within 1.5-fold, 18.8 µM
- CCN(CC)S(=O)(=O)c1ccc(NC(=O)c2cccnc2Cl)c(NC(=O)c2cccnc2Cl)c1 — 1.6-fold lower, 12.3 µM
- C=CCn1c(C)cc(C2=NNC(=NCC)SC2)c1C — 1.5-fold lower, 12.9 µM
- C(#Cc1ccccc1)C[N+]1(CC#Cc2cccc3ccccc23)CCCC1 — within 1.5-fold, 17.9 µM
- CCCCCCCNC(=O)C1(CC2CC(c3ccc(Cl)cc3)=NO2)CCNCC1 (stereo not drawn) — within 1.5-fold, 18.2 µM
- Cc1cc(/C=C2\Sc3ccccc3N2C)cc(C)[n+]1CC1CCCO1 (stereo not drawn) — 2-fold lower, 10 µM
- Cc1ccc2nc(N(CCCN(C)C)C(=O)c3ccc4c(c3)CCCC4)sc2c1 — within 1.5-fold, 17.7 µM
- CCOC(=O)Cn1c(=NC(=O)c2ccc([N+](=O)[O-])s2)sc2ccccc21 — 3.3-fold lower, 6.03 µM
- COc1cc(/C=C/C(=O)c2ccc3c(c2)OCCO3)cc(Br)c1OCC(=O)N(C)C — within 1.5-fold, 18 µM
- O=C(N/N=C/c1ccc([N+](=O)[O-])s1)C(O)c1ccccc1 (stereo not drawn) — 1.8-fold higher, 35.1 µM
- Cc1cc(C)cc(NS(=O)(=O)c2ccc3c(c2)c(=O)n(C)c(=O)n3C)c1 — within 1.5-fold, 25.5 µM
- CN(C)S(=O)(=O)c1ccc(-c2csc(N/N=C/c3ccco3)n2)cc1 — within 1.5-fold, 16.2 µM
- S=C=Nc1cccc(C2(N3CCCCC3)CCCCC2)c1 — within 1.5-fold, 20.4 µM
- CCN(CC)CCC(=O)N1C/C(=C/c2ccccc2)C(=O)/C(=C\c2ccccc2)C1 — within 1.5-fold, 24 µM
- O=C(/C=C/c1cccc([N+](=O)[O-])c1)c1cccs1 — within 1.5-fold, 27.8 µM
- O=C(CNc1cccc2ccccc12)N/N=C/c1ccc([N+](=O)[O-])o1 — within 1.5-fold, 19.9 µM
- Cc1nc2ccccc2n1/N=C/c1ccc([N+](=O)[O-])s1 — 2.6-fold lower, 7.45 µM
- CCN(CC)CCCNC1=C(Cl)C(=O)c2ccccc2C1=O — 3.4-fold lower, 5.82 µM
- Cc1cc(C)cc(NC(=O)c2ccc([N+](=O)[O-])o2)c1 — within 1.5-fold, 27.7 µM
- Cc1ccc(NC(=O)c2ccc([N+](=O)[O-])s2)cc1S(=O)(=O)N1CCOCC1 — within 1.5-fold, 16.2 µM
- COc1ccc2[nH]cc(C(=O)CCl)c2c1 — within 1.5-fold, 17.4 µM
- COc1ccc(C(=O)/C=C/C(=O)N(CC(=O)NC2CCCCC2)CC2CCCO2)c(O)c1 (stereo not drawn) — 1.7-fold lower, 11.9 µM
- Cn1cccc1C(=O)NC(=O)COC(=O)c1ccc(S(C)(=O)=O)c([N+](=O)[O-])c1 — 1.6-fold higher, 31.4 µM
- CC1CCC(C(C)C)C(OC(=O)C[n+]2cc(-c3ccc(Cl)cc3)n3c2CCCCC3)C1 (stereo not drawn) — within 1.5-fold, 17.2 µM
- CCCCn1c(=N)n(CCOc2ccc(C)cc2)c2ccccc21 — within 1.5-fold, 17.6 µM
- Cn1c(SCC(=O)N/N=C/c2ccc([N+](=O)[O-])s2)nnc1-c1ccccc1 — within 1.5-fold, 21.5 µM
- COc1ccc(Oc2cc(NC(=O)c3nn(C)cc3[N+](=O)[O-])cc([N+](=O)[O-])c2)cc1 — 1.5-fold higher, 30.4 µM
- COc1cccc(CNCCc2c[nH]c3ccccc23)c1OCc1ccccc1 — within 1.5-fold, 16.8 µM
- O=C(CCl)Nc1cccc(S(=O)(=O)N2CCCCCC2)c1 — 1.8-fold lower, 11.2 µM
- COc1ccc(-c2cc(-c3ccccc3)[n+](C)c(-c3ccccc3)c2)cc1 — within 1.5-fold, 21.2 µM
- Cc1cc(C)n(-c2ccc(C(=O)Nc3ccc(C)c(S(=O)(=O)N4CCOCC4)c3)cc2)n1 — within 1.5-fold, 28.1 µM
- Nc1nc2ccccc2n1/N=C/c1ccc([N+](=O)[O-])s1 — within 1.5-fold, 25.8 µM
- Cc1ccc(C(=O)N/C(=C\c2ccc(-c3ccc(Br)cc3)o2)C(=O)NCCCN(C)C)cc1 — within 1.5-fold, 17.1 µM
- Cc1ccc(-n2cc(CNCCCn3cccn3)c(-c3cccc(C)c3)n2)cc1 — within 1.5-fold, 20.1 µM
- Cc1ccccc1OCc1n(CC(=O)OC2CC(C)CCC2C(C)C)c2ccccc2[n+]1C (stereo not drawn) — within 1.5-fold, 15.8 µM
- CCN1CCN(c2ccc(S(=O)(=O)N3CCCCC3)cc2NC(=O)/C=C/c2cccc(OC)c2OC)CC1 — within 1.5-fold, 24.7 µM
- O=C(Nc1ccccc1)NN(C(=O)CCl)c1ccccc1 — within 1.5-fold, 28.7 µM
- CCCCN1C=CC(=C2C(=O)c3ccccc3C2=O)C=C1 — within 1.5-fold, 19.9 µM
- O=C(N/N=C\c1ccc([N+](=O)[O-])s1)c1cncc(Br)c1 — within 1.5-fold, 21 µM
- COc1ccc(C(=O)/C=C/C(=O)N(CC(=O)NC2CCCCC2)Cc2ccccc2OC)c(O)c1 — 2-fold lower, 9.67 µM
- O=C(CCl)Nc1cccc(-c2cnc3ccccc3n2)c1 — within 1.5-fold, 17.3 µM
- Cc1ccc(Cn2c(=N)n(CC(=O)c3ccc([N+](=O)[O-])cc3)c3ccccc32)cc1 — within 1.5-fold, 21.9 µM
- CC(=O)Nc1sc(C)c(C)c1C(=O)OCC(=O)N(CC(C)C)c1c(N)n(Cc2ccccc2)c(=O)[nH]c1=O — 2.4-fold lower, 8.38 µM
- CCOC(=O)CSC1=NC(=O)/C(=C/c2ccc(OC)cc2)S1 — within 1.5-fold, 28.5 µM
